Where a name gives a salt, the structure may show the parent alone.

In general, melting point refers to the temperature, or range, at which the solid turns liquid.

For the molecule `CC(=O)c1ccc(OCCCCCN2CCCC2)cc1` (as salt: oxalate) [Example 39, 1-[5-(4-acetylphenoxy)-pentyl]-pyrrolidine], the melting point was in the range of 130 to 134 °C. Consider `CCCN(CC)CCCCCOc1ccccc1` (as salt: oxalate) [Example 6, N-ethyl-N-(5-phenoxypentyl)-propylamine], for which the melting point is 90 to 91 °C. For `N#Cc1ccc(OCCCCCN2CCCC2)cc1` (as salt: oxalate) [Example 22, 1-[5-(4-cyanophenoxy)-pentyl]-pyrrolidine] the value was 129 to 130 °C; for `C[C@@H]1C[C@H](C)CN(CCCOc2ccc(C#N)cc2)C1` (as salt: oxalate) [Example 93, 1-[3-(4-cyanophenoxy)propyl]-cis-3,5-dimethylpiperidine], 161 to 163 °C. With `CC(=O)N1CCN(CCCCCOc2ccccc2)CC1` (as salt: oxalate) [Example 11, 1-acetyl-4-(5-phenoxypentyl)-piperazine], the melting point was 186 to 188 °C. The value for `CC(=O)c1ccc(OCCCN2C[C@H](C)C[C@H](C)C2)cc1` (as salt: oxalate) [Example 70, 1-[3-(4-acetylphenoxy)-propyl]-3,5-cis-dimethyl-piperidine] was 174 to 175 °C; that for `Clc1ccc(OCCCCCN2CCCC2)cc1` (as salt: oxalate) [Example 19, 1-[5-(4-chlorophenoxy)-pentyl]-pyrrolidine] was 139 to 141 °C. In turn, `N#Cc1ccc(OCCCN2CCCCC2)cc1F` (as salt: hydrochloride) [Example 82, 1-[3-(4-cyano-3-fluorophenoxy)propyl]piperidine] gave a melting point of 157 to 159 °C. The value for `CCC(=O)c1ccc(OCCCN2CCCCC2C)cc1` (centres unmarked) (as salt: oxalate) [Example 95, 1-[3-(4-propionylphenoxy)propyl]-2-methylpiperidine] was 92 to 94 °C; that for `CC1CCN(CCCCCOc2ccccc2)CC1` (as salt: oxalate) [Example 9, 1-(5-phenoxypentyl)-4-methyl-piperidine] was 151 to 152 °C. In the case of `CC1CCCCN1CCCCCOc1ccccc1` (centres unmarked) (as salt: oxalate) [Example 7, 1-(5-phenoxypentyl)-2-methyl-piperidine], the melting point fell in the range of 80 to 83 °C.

Turning to `O=Cc1ccc(OCCCN2CCCCC2)cc1` (as salt: oxalate) [Example 71, 1-[3-(4-formylphenoxy)-propyl]-piperidine], the melting point lay within 152 to 153 °C. Regarding `CCC(=NOC)c1ccc(OCCCN2CCCCC2C)cc1.Cl` (centres unmarked), the melting point lay in the range of 185 to 187 °C.

Take `CC1CCCCN1CCCOc1ccc([N+](=O)[O-])cc1` (centres unmarked) (as salt: oxalate) [Example 85, 1-[3-(4-nitrophenoxy)propyl]-2-methylpiperidine]: the melting point lay in the range of 151 to 153 °C. For `c1ccc(OCCCCCN2CCCCC2)cc1` (as salt: oxalate) [Example 1, 1-(5-phenoxypentyl)-piperidine] the value was 143 to 145 °C; for `O=C(c1ccc(OCCCN2CCCCC2)cc1)C1CCC1` (as salt: oxalate) [Example 89, 1-[3-(4-cyclobutylcarbonylphenoxy)propyl]piperidine], 80 to 82 °C; for `O=C(c1ccc(OCCCN2CCCCC2)cc1)C1CCCC1` (as salt: oxalate) [Example 90, 1-[3-(4-cyclopentylcarbonylphenoxy)propyl]piperidine], 143 to 145 °C. As to `CCN(CC)CCCOc1ccc(C(C)=O)cc1` (as salt: oxalate) [Example 46, N-[3-(4-acetylphenoxy)-propyl]-diethylamine], the melting point was in the range of 108 to 110 °C. The value for `c1ccc(SCCCCN2CCCC2)cc1` (as salt: oxalate) [Example 34, 1-(4-phenylthiobutyl)-pyrrolidine] was 114 to 116 °C; that for `CCN(CC)CCCOc1ccc(C#N)cc1` (as salt: oxalate) [Example 43, N-[3-(4-cyanophenoxy)-propyl]-diethylamine] was 148 to 150 °C; that for `CC(C)c1ccc(OCCCN2CCCCC2)cc1` (as salt: oxalate) [Example 111] was 131 to 134 °C.

For `CN(C)CCCOc1ccc(C#N)cc1` (as salt: oxalate) [Example 55, N-[3-(4-cyanophenoxy)-propyl]-dimethylamine], the melting point lay within 166 to 167 °C. Regarding `CCN(CC)CCCCCOc1ccc(C#N)cc1` (as salt: oxalate) [Example 51, 1-[5-(4-cyanophenoxy)-pentyl]-diethylamine], the melting point lay in the range of 120 to 122 °C. The value for `CN(C)S(=O)(=O)c1ccc(OCCCN2CCCCC2)cc1` (as salt: oxalate) [Example 110, 1-[3-(4-N,N-dimethylsulfonamidophenoxy)propyl]piperidine] was 149 to 153 °C; that for `CC(=O)c1ccc(OCCCN2C[C@@H](C)C[C@H](C)C2)cc1` (stereo in doubt) (as salt: oxalate) [Example 67, 1-[3-(4-acetylphenoxy)-propyl]-3,5-trans-dimethyl-piperidine] was 171 to 172 °C; that for `CC(O)c1ccc(OCCCCCN2CCCC2)cc1` (centres unmarked) (as salt: oxalate) [Example 50, 1-{5-[4-(1-hydroxyethyl)-phenoxy]-pentyl}-pyrrolidine] was 102 to 104 °C. For `c1ccc(OCCCCCN2CCCCCC2)cc1` (as salt: oxalate) [Example 5, N-(5-phenoxypentyl)-hexamethyleneimine] the value was 132 to 134 °C; for `O=C(Nc1ccc(OCCCCCN2CCCC2)cc1)c1ccccc1` (as salt: oxalate) [Example 49, 1-[5-(4-N-benzamidophenoxy)-pentyl]-pyrrolidine], 176 to 178 °C.

Regarding `CC1CCCN(CCCCCOc2ccc([N+](=O)[O-])cc2)C1` (centres unmarked) (as salt: oxalate) [Example 38, 1-[5-(4-nitrophenoxy)-pentyl]-3-methyl-piperidine], the melting point was in the range of 148 to 149 °C. For `CC1CCN(CCCOc2ccc(C#N)cc2)CC1` (as salt: hydrochloride) [Example 78, 1-[3-(4-cyanophenoxy)propyl]-4-methylpiperidine], the melting point fell in the range of 200 to 202 °C. `CC1CCCN(CCCCCOc2ccccc2)C1` (centres unmarked) [Example 10, 1-(5-phenoxypentyl)-3-methyl-piperidine]: the melting point was in the range of 140 to 141 °C.

`CC(=O)c1ccc(OCC(C)CN2CCCCC2)cc1` (centres unmarked) (as salt: oxalate) [Example 80, 1-[3-(4-acetylphenoxy)-2-S-methylpropyl]piperidine] had a melting point of 148 to 150 °C. The value for `CC(=O)CCc1ccc(OCCCN2CCCCC2)cc1.Cl` was 148 to 150 °C; that for `N#Cc1ccc(OCCCN2CCCCC2)cc1` (as salt: oxalate) [Example 59, 1-[3-(4-cyanophenoxy)propyl]piperidine] was 151 to 153 °C; that for `Nc1ccc(OCCCCCN2CCCC2)cc1` (as salt: oxalate) [Example 40, 1-[5-(4-aminophenoxy)-pentyl]-pyrrolidine] was 120 to 122 °C.

In turn, `Brc1ccc(OCCCN2CCCCC2)cc1` (as salt: oxalate) [Example 108, 1-[3-(4-bromophenoxy)propyl]piperidine] gave a melting point of 175 to 177 °C. The value for `c1ccc(Oc2ccc(OCCCCCN3CCCC3)cc2)cc1` (as salt: oxalate) [Example 48, 1-[5-(4-phenoxyphenoxy)-pentyl]-pyrrolidine] was 135 to 136 °C. For `CC1CCCCN1CCCOc1ccc(C#N)cc1` (centres unmarked) (as salt: hydrochloride) [Example 98] the value was 151 to 153 °C; for `N#Cc1ccc(OCCCN2CCCC2)cc1` (as salt: oxalate) [Example 58, 1-[3-(4-cyanophenoxy)-propyl]-pyrrolidine], 163 to 165 °C; for `CC1CCCN(CCCOc2ccc(C#N)cc2)C1.Cl` (centres unmarked), 171 to 173 °C. The value for `CCC(=NO)c1ccc(OCCCN2CCC(C)CC2)cc1` (as salt: oxalate) [Example 107] was 157 to 160 °C; that for `CCCc1ccc(OCCCN2CCCCC2)cc1` (as salt: oxalate) [Example 113, 1-[3-(4-propylphenoxy)propyl]piperidine] was 121 to 124 °C; that for `CCN(CC)CCCCOc1ccc(C#N)cc1` (as salt: oxalate) [Example 56, N-[4-(4-cyanophenoxy)-butyl]-diethylamine] was 143 to 145 °C.

Turning to `CC(=O)c1ccc(OCCCN2CCC(C)CC2)cc1` (as salt: oxalate) [Example 68, 1-[3-(4-acetylphenoxy)-propyl]-4-methyl-piperidine], the melting point lay within 160 to 161 °C. The value for `CCN(CC)CCCCCCOc1ccc(C#N)cc1` (as salt: oxalate) [Example 61, N-[6-(4-cyanophenoxy)-hexyl]-diethylamine] was 110 to 112 °C; that for `COc1ccc(OCCCCCN2CCCC2)cc1` (as salt: oxalate) [Example 20, 1-[5-(4-methoxyphenoxy)-pentyl]-pyrrolidine] was 115 to 116 °C. On to `CCOC(=O)C1CCN(CCCCCOc2ccccc2)CC1` (as salt: oxalate) [Example 15, 4-carboethoxy-1-(5-phenoxypentyl)-piperidine], for which the melting point was in the range of 149 to 150 °C. For `CCC(C)c1ccc(OCCCN2CCCCC2)cc1` (centres unmarked) (as salt: oxalate) [Example 112, 1-[3-(4-sec-butylphenoxy)propyl]pipenidine], the melting point is 133 to 136 °C. The value for `CC(=O)c1ccc(OCCCN2CC=CCC2)cc1` (as salt: oxalate) [Example 75, 1-[3-(4-acetylphenoxy)-propyl]-1,2,3,6-tetrahydropyridine] was 143 to 144 °C. In turn, `c1ccc(SCCCCCN2CCCC2)cc1` (as salt: oxalate) [Example 33, 1-(5-phenylthiopentyl)-pyrrolidine] showed a melting point of 150 to 152 °C.

For the origin of these results see patent publication US20060247223A1, “Non-imidazole alkylamines as histamine H3- receptor ligands and their therapeutic applications” (priority 1998, published 2006).
